Test results taken from patent publication US6521751B1, “Recombinant nucleic acid sequences and methods for determining both genotoxicity and mutagenicity of a sample and the kinetics of the genotoxicity” (Vlaamse Instelling voor Technologisch Onderzoek (VITO), priority 1998, dated 2003).
Where “and” joins values, the source holds several entries; their conditions need not be identical. Equal values may be shown once. Read-outs that look alike come from different tables or passages of the source.

Assays:
S. typhimurium = settings: cited from earlier work
[1] = tested on: TA 98 and TA104 strains containing pMOL1067 or pMOL1068
[2] = tested on: S. typhimurium TA98 containing pMOL1067
[3] = tested on: S. typhimurium TA104 containing pMOL1069
[4] = tested on: S. typhimurium TA104 containing pMOL1067
[5] = tested on: S. typhimurium TA104 containing pMOL1068
[6] = tested on: S. typhimurium TA104 containing pMOL890
E. coli (sfiA-lacZ) = settings: cited from earlier work
[7] = tested on: S. typhimurium TA104 containing pMOL1066
[8] = tested on: S. typhimurium TA98 containing pMOL1068
[9] = tested on: S. typhimurium TA98 containing pMOL890
[10] = tested on: TA98 and TA104 strains containing pMOL890, pMOL1067 or pMOL1068; assay: Test with the TA98 and TA104 strains containing pMOL890, pMOL1067 or pMOL1068
[11] = tested on: novel biosensor systems in E. coli and in S. typhimurium strains; assay: Subject SOS promoter-lux systems (general statements); settings: agents known to give false negative results in the SOS chromotest and the Ames test
[12] = tested on: S. typhimurium TA98* containing pMOL890
[13] = tested on: S. typhimurium TA104* containing pMOL890
[14] = tested on: S. typhimurium TA100* containing pMOL890
[15] = TA 98 and TA104 strains containing pMOL1067 or pMOL1068
[16] = SOS chromotest, literature values

CCCCCCCCCCCCOS(=O)(=O)[O-].[Na+] [Sodium Dodecyl Sulphate]
AMES (result) (S. typhimurium; Ames test, Table 3): neg
OUTCOME (genotoxicity, final outcome) [1, 15]: neg

c1ccc2c(c1)ccc1c3ccccc3ccc21 [chrysene]
MINIMAL DETECTED CONCENTRATION (MDC) ([2]; TA98 pMOL1067): 5.5 nmol/assay
MINIMAL DETECTED CONCENTRATION (MDC) ([3]; TA104 pMOL1069): 0.55 nmol/assay
MINIMAL DETECTED CONCENTRATION (MDC) ([4]; TA104 pMOL1067): 0.55 nmol/assay
MINIMAL DETECTED CONCENTRATION (MDC) ([5]; TA104 pMOL1068): 1.095 nmol/assay
MINIMAL DETECTED CONCENTRATION (MDC) ([6]; TA104 pMOL890): 2.2 nmol/assay
SOS (result) (E. coli (sfiA-lacZ); SOS chromotest, Table 3): pos
MINIMAL DETECTED CONCENTRATION (MDC) (E. coli (sfiA-lacZ); [16]): 11 nmol/assay
MINIMAL DETECTED CONCENTRATION (MDC) ([7]; TA104 pMOL1066): 1.095 nmol/assay
MINIMAL DETECTED CONCENTRATION (MDC) ([8]; TA98 pMOL1068): 5.5 nmol/assay
AMES (result) (S. typhimurium): pos
MINIMAL DETECTED CONCENTRATION (MDC) (S. typhimurium): pos
OUTCOME (genotoxicity, final outcome) [1, 15]: pos
MINIMAL DETECTED CONCENTRATION (MDC) ([9]; TA98 pMOL890): 2.2 nmol/assay

CN(Cc1cnc2nc(N)nc(N)c2n1)c1ccc(C(=O)N[C@@H](CCC(=O)O)C(=O)O)cc1 [Methotrexate]
SOS (result) (E. coli (sfiA-lacZ); SOS chromotest, Table 3): pos
AMES (result) (S. typhimurium; Ames test, Table 3): pos
OUTCOME (genotoxicity, final outcome) [1, 15]: pos

CCn1cc(C(=O)O)c(=O)c2ccc(C)nc21 [Nalidixic acid]
AMES (result) (S. typhimurium): neg
result in the Ames test (S. typhimurium): False-negative
OUTCOME (genotoxicity, final outcome) [1, 15]: pos
result in the test (genotoxicity) [10]: positive
result in the novel systems according to the invention [11]: positive

COC(=O)N/N=C/c1c[n+]([O-])c2ccccc2[n+]1[O-] [Carbadox]
SOS (result) (E. coli (sfiA-lacZ); SOS chromotest, Table 3): pos
AMES (result) (S. typhimurium; Ames test, Table 3): pos
OUTCOME (genotoxicity, final outcome) [1, 15]: pos

NN [Hydrazine]
SOS (result) (E. coli (sfiA-lacZ); SOS chromotest, Table 3): pos
AMES (result) (S. typhimurium): pos
OUTCOME (genotoxicity, final outcome) [1, 15]: pos

[Cl][Cd][Cl] [CdCl2]
MINIMAL DETECTED CONCENTRATION (MDC) [2]: neg
MINIMAL DETECTED CONCENTRATION (MDC) [3]: neg
MINIMAL DETECTED CONCENTRATION (MDC) [4]: neg
MINIMAL DETECTED CONCENTRATION (MDC) [5]: neg
MINIMAL DETECTED CONCENTRATION (MDC) [6]: neg
MINIMAL DETECTED CONCENTRATION (MDC) (E. coli (sfiA-lacZ)): neg
SOS (result) (E. coli (sfiA-lacZ)): neg
MINIMAL DETECTED CONCENTRATION (MDC) [7]: neg
MINIMAL DETECTED CONCENTRATION (MDC) [8]: neg
AMES (result) (S. typhimurium): neg
MINIMAL DETECTED CONCENTRATION (MDC) (S. typhimurium): neg
OUTCOME (genotoxicity, final outcome) [1]: neg
MINIMAL DETECTED CONCENTRATION (MDC) [9]: neg

c1cc2ccc3cccc4ccc(c1)c2c34 [Pyrene]
AMES (result) (S. typhimurium): neg
result in the Ames test (S. typhimurium): False-negative
OUTCOME (genotoxicity, final outcome) [1, 15]: pos
result in the test (genotoxicity) [10]: positive
result in the novel systems according to the invention [11]: positive

c1ccc2c(c1)cc1ccc3cccc4ccc2c1c34 [BαP, benzo-α-pyrene]
Number of His^+ revertants ([12]; BαP 10 mmol + S9): 24
Number of His^+ revertants ([12]; BαP 50 mmol − S9): 0
Number of His^+ revertants ([12]; BαP 200 mmol + S9): 49 and 50
Number of His^+ revertants ([12]; BαP 200 mmol − S9): 0
Number of His^+ revertants ([12]; BαP 600 mmol + S9): 29 and 33
Number of His^+ revertants ([12]; BαP 600 mmol − S9): 0
MINIMAL DETECTED CONCENTRATION (MDC) ([2]; TA98 pMOL1067): 0.16 nmol/assay
MINIMAL DETECTED CONCENTRATION (MDC) ([3]; TA104 pMOL1069): 0.16 nmol/assay
MINIMAL DETECTED CONCENTRATION (MDC) ([4]; TA104 pMOL1067): 0.079 nmol/assay
MINIMAL DETECTED CONCENTRATION (MDC) ([5]; TA104 pMOL1068): 0.16 nmol/assay
MINIMAL DETECTED CONCENTRATION (MDC) ([6]; TA104 pMOL890): 0.32 nmol/assay
SOS (result) (E. coli (sfiA-lacZ); SOS chromotest, Table 3): pos
MINIMAL DETECTED CONCENTRATION (MDC) (E. coli (sfiA-lacZ); [16]): 0.7 nmol/assay
MINIMAL DETECTED CONCENTRATION (MDC) ([7]; TA104 pMOL1066): 0.16 nmol/assay
MINIMAL DETECTED CONCENTRATION (MDC) ([8]; TA98 pMOL1068): 0.16 nmol/assay
Number of His^+ revertants ([13]; BαP 50 mmol + S9): 82 and 85
Number of His^+ revertants ([13]; BαP 50 mmol − S9): 29 and 27
Number of His^+ revertants ([13]; BαP 200 mmol + S9): 87
Number of His^+ revertants ([13]; BαP 200 mmol − S9): 26 and 32
Number of His^+ revertants ([13]; BαP 600 mmol + S9): 57 and 69
Number of His^+ revertants ([13]; BαP 600 mmol − S9): 21 and 19
OUTCOME (genotoxicity, final outcome) [1, 15]: pos
Number of His^+ revertants ([14]; BαP 10 mmol + S9): 67 and 80
Number of His^+ revertants ([14]; BαP 50 mmol + S9): 64 and 54
Number of His^+ revertants ([14]; BαP 50 mmol − S9): 15 and 11
Number of His^+ revertants ([14]; BαP 200 mmol + S9): 59 and 58
Number of His^+ revertants ([14]; BαP 600 mmol + S9): 74 and 73
Number of His^+ revertants ([14]; BαP 600 mmol − S9): 6 and 3
MINIMAL DETECTED CONCENTRATION (MDC) ([9]; TA98 pMOL890): 1.59 nmol/assay

4-nitroquinoline-N-oxyde [4-NQO]
MINIMAL DETECTED CONCENTRATION (MDC) (E. coli (sfiA-lacZ)): 0.006 nmol/assay
SOS (result) (E. coli (sfiA-lacZ)): pos
OUTCOME (genotoxicity, final outcome) [1]: pos

[N-]=[N+]=[N-] [Sodiumazide]
SOS (result) (E. coli (sfiA-lacZ); SOS chromotest, Table 3): neg
result in the SOS chromotest (E. coli (sfiA-lacZ); text b126): negative
AMES (result) (S. typhimurium): pos
OUTCOME (genotoxicity, final outcome) [1, 15]: pos
result in the test (genotoxicity) [10]: positive
result in the novel systems according to the invention [11]: positive

Oc1c(Cl)c(Cl)c(Cl)c(Cl)c1Cl [Pentachlorophenole]
SOS (result) (E. coli (sfiA-lacZ)): pos

c1ccc2ccccc2c1 [Naphtalene]
SOS (result) (E. coli (sfiA-lacZ)): neg
OUTCOME (genotoxicity, final outcome) [1]: neg

ClCC1CO1 (stereo not shown) [Epichlorohydrine]
SOS (result) (E. coli (sfiA-lacZ)): pos
AMES (result) (S. typhimurium): pos
OUTCOME (genotoxicity, final outcome) [1]: pos
